Source: ChEMBL document CHEMBL1201862, “PubChem BioAssay data set” (2004)
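Following 48 hours of exposure in 96-well plates, responses at five concentrations were used to interpolate endpoints linearly. GI50 = concentration required for 50% inhibition of growth.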 Active and inactive are the calls of the source. No stated cut-off is given here; in the data, active = GI50 up to about 1.1 µM and inactive = higher.

Legend:
Experiment in all cases: NCI-60 cell line screen, 48 h
A498 = test system: A498
A549 = test system: A549
HCC 2998 = test system: HCC 2998
HCT-116 = test system: HCT-116
HOP-62 = test system: HOP-62
HOP-92 = test system: HOP-92
KM12 = test system: KM12
MDA-MB-231 = test system: MDA-MB-231
Malme-3M = test system: Malme-3M
NCI-H460 = test system: NCI-H460
OVCAR-8 = test system: OVCAR-8
RXF 393 = test system: RXF 393
SK-OV-3 = test system: SK-OV-3
SN12C = test system: SN12C
SR = test system: SR
SW-620 = test system: SW-620
T47D = test system: T47D
UACC-62 = test system: UACC-62
BT-549 = test system: BT-549

Row | SMILES | GI50 (A498) | GI50 (A549) | GI50 (HCC 2998) | GI50 (HCT-116) | GI50 (HOP-62) | GI50 (HOP-92) | GI50 (KM12) | GI50 (MDA-MB-231) | GI50 (Malme-3M) | GI50 (NCI-H460) | GI50 (OVCAR-8) | GI50 (RXF 393) | GI50 (SK-OV-3) | GI50 (SN12C) | GI50 (SR) | GI50 (SW-620) | GI50 (T47D) | GI50 (UACC-62) | GI50 (BT-549)
1 | CCOC(=O)c1c(SC(=O)c2ccc(C(C)(C)C)cc2)n(-c2ccccc2)c(=S)n(-c2ccccc2)c1=O | > 100 µM (inactive) | > 100 µM (inactive) | > 100 µM (inactive) | > 100 µM (inactive) | > 100 µM (inactive) | > 100 µM (inactive) | > 100 µM (inactive) | > 100 µM (inactive) | > 100 µM (inactive) | > 100 µM (inactive) | > 100 µM (inactive) | > 100 µM (inactive) | > 100 µM (inactive) | > 100 µM (inactive) | > 100 µM (inactive) | > 100 µM (inactive) | > 100 µM (inactive) | > 100 µM (inactive) | 
2 | O=[N+]([O-])/C(C(Cl)=C(Cl)Cl)=C(\SCc1ccccc1)N1CCCCC1 | 31.9 µM (inactive) | 30.9 µM (inactive) | 23.4 µM (inactive) | 16.3 µM (inactive) | 38.4 µM (inactive) | 0.0879 µM (active) | 28 µM (inactive) | 13.3 µM (inactive) | 12.2 µM (inactive) | 23.8 µM (inactive) | 20.6 µM (inactive) | 19.7 µM (inactive) | 40 µM (inactive) | 20.2 µM (inactive) | 8.34 µM (inactive) |  | 8.43 µM (inactive) | 17.9 µM (inactive) | 
3 | C=C(C#N)C1OCC2OC(C)(C)OC21 (stereo unspecified) | 22.2 µM (inactive) | 36 µM (inactive) | 26.7 µM (inactive) | 18.7 µM (inactive) | > 100 µM (inactive) | 24 µM (inactive) | 33.3 µM (inactive) |  |  | 24.9 µM (inactive) | 21.5 µM (inactive) | 16.7 µM (inactive) | 50.6 µM (inactive) | 18.4 µM (inactive) |  | 19 µM (inactive) |  | 17.3 µM (inactive) | 
4 | CSC1=C(C#N)C(=O)N(c2ccc(C)cc2)C(=S)C1C#N (stereo unspecified) | > 100 µM (inactive) | > 100 µM (inactive) | > 100 µM (inactive) | > 100 µM (inactive) | > 100 µM (inactive) | 33.4 µM (inactive) | > 100 µM (inactive) | > 100 µM (inactive) | > 100 µM (inactive) | > 100 µM (inactive) | > 100 µM (inactive) | > 100 µM (inactive) | > 100 µM (inactive) | > 100 µM (inactive) |  | > 100 µM (inactive) |  | > 100 µM (inactive) | > 100 µM (inactive)
5 | O=C(CC(C(=O)c1cccs1)c1ccsc1)c1ccccc1 (stereo unspecified) | 51.8 µM (inactive) | 21.5 µM (inactive) | > 100 µM (inactive) | 38.3 µM (inactive) | > 100 µM (inactive) | > 100 µM (inactive) | 38.9 µM (inactive) | 17.5 µM (inactive) |  | 51.4 µM (inactive) | > 100 µM (inactive) | 61 µM (inactive) | > 100 µM (inactive) | > 100 µM (inactive) | 66.1 µM (inactive) | > 100 µM (inactive) | 24.7 µM (inactive) | 50.7 µM (inactive) | 
6 | CCOC(=O)c1cn2c(ccc3sc4ccccc4c(=O)c32)n1 | > 100 µM (inactive) | > 100 µM (inactive) | > 100 µM (inactive) | > 100 µM (inactive) | > 100 µM (inactive) | 87.5 µM (inactive) | > 100 µM (inactive) | > 100 µM (inactive) | > 100 µM (inactive) | > 100 µM (inactive) | > 100 µM (inactive) | > 100 µM (inactive) |  | > 100 µM (inactive) | > 100 µM (inactive) | > 100 µM (inactive) |  |  | > 100 µM (inactive)
7 | Cc1ccc(/N=c2/oc3c(ccc4ccccc43)nc2Nc2ccc(C)cc2)cc1 | > 100 µM (inactive) | > 100 µM (inactive) | > 100 µM (inactive) | > 100 µM (inactive) | > 100 µM (inactive) | > 100 µM (inactive) | > 100 µM (inactive) | > 100 µM (inactive) | > 100 µM (inactive) | > 100 µM (inactive) | > 100 µM (inactive) | > 100 µM (inactive) | > 100 µM (inactive) | > 100 µM (inactive) | 69.8 µM (inactive) | > 100 µM (inactive) | > 100 µM (inactive) | > 100 µM (inactive) | 
8 | CN/C(=N\CCSCc1nc[nH]c1C)NC#N [CIMETIDINE] | 91.6 µM (inactive) | > 100 µM (inactive) | > 100 µM (inactive) | > 100 µM (inactive) | > 100 µM (inactive) | > 100 µM (inactive) | > 100 µM (inactive) | > 100 µM (inactive) | > 100 µM (inactive) | > 100 µM (inactive) | > 100 µM (inactive) | > 100 µM (inactive) | > 100 µM (inactive) | > 100 µM (inactive) | > 100 µM (inactive) | > 100 µM (inactive) | > 100 µM (inactive) | > 100 µM (inactive) | 
9 | Cc1ccc(NC(=O)c2cc(S(=O)(=O)Nc3n[nH]c(=O)[nH]3)c(SSc3cc(Cl)c(C(=O)Nc4ccc(C)cc4)cc3S(=O)(=O)Nc3n[nH]c(=O)[nH]3)cc2Cl)cc1 | > 100 µM (inactive) | > 100 µM (inactive) | > 100 µM (inactive) | > 100 µM (inactive) | > 100 µM (inactive) | > 100 µM (inactive) | > 100 µM (inactive) | > 100 µM (inactive) | > 100 µM (inactive) | > 100 µM (inactive) | > 100 µM (inactive) |  | > 100 µM (inactive) | > 100 µM (inactive) | > 100 µM (inactive) | > 100 µM (inactive) |  | 0.838 µM (active) | > 100 µM (inactive)
10 | COc1ccc(C2C(=O)c3c(OC)cc(OC)cc3OC2c2cccnc2)cc1 (stereo unspecified) | > 100 µM (inactive) | > 100 µM (inactive) | > 100 µM (inactive) | > 100 µM (inactive) | > 100 µM (inactive) |  | > 100 µM (inactive) | > 100 µM (inactive) | 67.9 µM (inactive) | 92.7 µM (inactive) | > 100 µM (inactive) | > 100 µM (inactive) | > 100 µM (inactive) | > 100 µM (inactive) | 37.6 µM (inactive) | > 100 µM (inactive) | > 100 µM (inactive) | 82.2 µM (inactive) | 
11 | CSCCC(NC(c1ccccc1)c1ccccc1)[PH](=O)O (stereo unspecified) |  | > 100 µM (inactive) |  | > 100 µM (inactive) | > 100 µM (inactive) | > 100 µM (inactive) | > 100 µM (inactive) |  | > 100 µM (inactive) | > 100 µM (inactive) | > 100 µM (inactive) |  | > 100 µM (inactive) | > 100 µM (inactive) | > 100 µM (inactive) | > 100 µM (inactive) | > 100 µM (inactive) | > 100 µM (inactive) | > 100 µM (inactive)
12 | CCCC(=O)OC1C(CO)OC(n2cc(F)c(=O)[nH]c2=O)C1F (stereo unspecified) | 5.68 µM (inactive) | > 100 µM (inactive) |  | 22.3 µM (inactive) | 4.5 µM (inactive) | > 100 µM (inactive) | > 100 µM (inactive) |  | 42.6 µM (inactive) |  | 72.1 µM (inactive) | > 100 µM (inactive) | > 100 µM (inactive) | 15.4 µM (inactive) | 5.41 µM (inactive) | > 100 µM (inactive) | > 100 µM (inactive) | 24.1 µM (inactive) | 11.5 µM (inactive)
13 | NCCCNOCCCN | > 100 µM (inactive) | > 100 µM (inactive) | > 100 µM (inactive) | > 100 µM (inactive) | > 100 µM (inactive) | 37.8 µM (inactive) | > 100 µM (inactive) | > 100 µM (inactive) | > 100 µM (inactive) | > 100 µM (inactive) | > 100 µM (inactive) | > 100 µM (inactive) | > 100 µM (inactive) | > 100 µM (inactive) | 2.26 µM (inactive) | > 100 µM (inactive) | > 100 µM (inactive) | > 100 µM (inactive) | 
14 | CCn1c2nc(=O)n(CCCCCCCCSC(c3ccccc3)(c3ccccc3)c3ccccc3)c(=O)c-2nc2ccccc21 | 37.8 µM (inactive) |  | 2.67 µM (inactive) | 3.7 µM (inactive) | 27.5 µM (inactive) | 15.5 µM (inactive) | 9.91 µM (inactive) | 45.4 µM (inactive) |  | 4.62 µM (inactive) | 43.6 µM (inactive) | 11.3 µM (inactive) | 82.8 µM (inactive) |  | 2.61 µM (inactive) | 3.41 µM (inactive) | 8.05 µM (inactive) |  | 
15 | Brc1ccc(C2=NCSC(c3ccc(Br)cc3)=N2)cc1 |  | 32.3 µM (inactive) | 23 µM (inactive) | 16.6 µM (inactive) | 39.1 µM (inactive) | 37.7 µM (inactive) | 24.4 µM (inactive) | 68.9 µM (inactive) | 35.2 µM (inactive) | 18.4 µM (inactive) | 37.8 µM (inactive) | 8.53 µM (inactive) | 43.1 µM (inactive) | 29.6 µM (inactive) | 22.2 µM (inactive) | 12.1 µM (inactive) |  | 5.3 µM (inactive) | 52.8 µM (inactive)
16 | CC1C[C@]2(C)C(NCCN)=Nc3ccccc3[C@@H]2N(C)c2ccccc21 (stereo partly specified) | 16.5 µM (inactive) | 16.4 µM (inactive) | 2.9 µM (inactive) | 8.32 µM (inactive) | 16.1 µM (inactive) | 2.3 µM (inactive) | 16 µM (inactive) | 8.57 µM (inactive) | 3.72 µM (inactive) | 11.1 µM (inactive) | 14.7 µM (inactive) | 8.85 µM (inactive) |  | 14.4 µM (inactive) | 2.81 µM (inactive) | 17.5 µM (inactive) | 15.1 µM (inactive) | 13.6 µM (inactive) | 
